From PubChem BioAssay AID2610 (Broad Institute, 2010)
Records with an inconclusive call do not appear. The source made the active and inactive calls.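 Rule for the calls: active = EC50 no more than tenfold above the top concentration tested, with valid fit and all samples agreeing; inconclusive = flat fit at 30 to 70% inhibition, poor fit, or split samples; inactive = EC50 beyond tenfold the top concentration tested.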

What follows are compounds tested on BJeLR fibroblast viability, Alamar Blue fluorescence, 48 h (assay: BJeLR fibroblast growth inhibition, viability readout – cell-based, alamar blue fluorescence, 48 h, cherrypicked samples, dose response (AID 2610);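 note: BJ fibroblasts with hTERT plus SV40 large and small T and HRAS V12; EC50 for loss of viable cells so potency reflects cytotoxic compounds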).

SMILES | EC50
COc1ccccc1/C=C1\SC(=O)N(CCC(=O)NCCCn2ccnc2)C1=O | > 13300 nM (inactive)
Cc1ccc(C(=O)c2cc([N+](=O)[O-])ccc2N2CCCCC2)c(C)c1 | < 104 nM
Cc1cc(C)cc(NS(=O)(=O)c2ccc(-c3cnc(C4CC4)o3)cc2)c1 | < 104 nM
NS(=O)(=O)c1ccc(NC(=O)c2cc(-c3cccs3)nc3ccccc23)cc1 | > 13300 nM (inactive)
COc1ccc(N2C(=O)/C(=C/c3ccc(C)o3)C(=O)NC2=S)cc1 | > 13300 nM (inactive)
O=C(CCCCCCCCCCC(=O)NCc1cccnc1)NCc1cccnc1 | > 13300 nM (inactive)
Oc1c(N=Nc2ccccn2)ccc2ccccc12 | 241 nM
CC[C@@]1(O)C(=O)OCc2c1cc1n(c2=O)Cc2cc3c(N)cccc3nc2-1 | < 30.7 nM
CC(C)c1cc(C(=O)N/N=C/C(Br)=C/c2ccccc2)n[nH]1 | 958 nM
CCN1CCc2c(sc(NC(=O)c3cc4ccccc4cc3OC)c2C(N)=O)C1 | 588 nM
C=C1C(=O)C=C2CN(C(=O)c3ccccc3)[C@@](Cc3ccc(F)cc3)(C(=O)OC)[C@@H]12 | 140 nM
Cc1ccc(C)c(NS(=O)(=O)c2ccc(-c3cnc(C4CC4)o3)cc2)c1 | < 104 nM
COc1cc(/C=C/c2ccc3cccc(O)c3n2)cc(OC)c1OC | 3370 nM
CCNC(=S)NNC(=O)c1cc(-c2ccc(OCC)cc2)nc2ccccc12 | > 13300 nM (inactive)
C[C@]12CCC3C(CCC4=CC(O)CC[C@@]43/C=N/O)C1(O)CCC2C1=CC(=O)OC1 (some centres undefined) | 294 nM
CN(C)CCCNc1c2ccccc2nc2ccccc12 | 506 nM
COc1ccc(-c2coc3cc4oc(=O)c5ccccc5c4cc23)cc1F | < 104 nM
COC(=O)C1=C(C)N(Cc2ccccc2)C(=NCc2cccc(C(F)(F)F)c2)N[C@H]1c1cccc(F)c1 | > 13300 nM (inactive)
N#CCc1ccc(NC(=O)/C=C/c2ccc([N+](=O)[O-])o2)cc1 | 1100 nM
O=Cc1ccc(O)c2ncccc12 | 463 nM
COc1ccccc1-c1nnc2sc(-c3ccc(N(C)C)cc3)nn12 | < 104 nM
COC(=O)c1[nH]c2c(c1C)C(=O)CC(c1cccs1)C2 (centres undefined) | 152 nM

SMILES | EC50
CCOC(=O)C1CCN(S(=O)(=O)c2c(Cl)ccc3nonc23)CC1 | 407 nM
Cc1nn(-c2ccccc2)c(Cl)c1CN(C(=O)CCl)c1ccc(Cl)cc1 | 521 nM
COc1ccc(N/C=C/C(=O)c2cc(OC)c(OC)c(OC)c2)cc1 | 206 nM
CNC1=C(N(C(C)=O)c2ccc(Br)cc2)C(=O)c2ccccc2C1=O | 1350 nM
CC1(C)C[C@H]2C=C(C=O)[C@]3(C=O)C[C@]3(C)[C@H]2C1 | 580 nM
O=C(CCl)N=c1sccn1Cc1ccccc1Cl | < 88.2 nM
O=C(NCc1cccnc1)c1ccc(-c2cc3ccccc3oc2=O)cc1 | 1340 nM
O=[N+]([O-])c1ccc(N=Nc2ncc[nH]2)cc1 | 2370 nM
CCOc1ccc(OCc2cccc(C(=O)O)c2)cc1 | > 13300 nM (inactive)
CCOC(=O)c1c(C)[nH]c2c1-c1ccccc1C(=O)C2=O | 492 nM
CC(C)Oc1ccccc1C1CC(=O)Nc2cc3c(cc21)OCCO3 (centres undefined) | 307 nM
CCc1c(C)c(C#N)c2nc3ccccc3n2c1Cl | 553 nM
CSc1ccc(COC(=O)c2cc([N+](=O)[O-])ccc2N2CCOCC2)cc1 | < 104 nM
COc1ccc(-c2cc3nc(C)n(N)c(=O)c3s2)cc1 | > 13300 nM (inactive)
COC(=O)C[C@]1(C(=O)OC)CN(C#N)N(c2ccc(Cl)cc2)C12c1ccccc1-c1ccccc12 | 762 nM
COc1cc(SC)ccc1C(=O)Nc1nc2ccccc2[nH]1 | > 13300 nM (inactive)
COc1cccc(C(=O)Nc2ccc(N3CCCC3)cc2)c1 | 1970 nM
CCn1c(C)nc2cc(-c3nc4n(n3)Cc3ccccc3-4)ccc21 | > 13300 nM (inactive)
COc1ccc(OC)c2sc(N(CCCN(C)C)C(=O)c3ccc(S(=O)(=O)N4CCc5ccccc5C4)cc3)nc12 | 108 nM
CCOC(=O)c1c(CSC(=N)N)n(-c2ccc(C)cc2)c2cc(Br)c(OC(C)=O)cc12 | > 13300 nM (inactive)
CN1C/C(=C/c2ccncc2)C(=O)/C(=C/c2ccncc2)C1 | 555 nM
COc1ccc(F)cc1CN1CCN(C(=O)CCC(=O)Nc2nnc(CC(C)C)s2)CC1 | > 13300 nM (inactive)

SMILES | EC50
CCc1nc(N)nc(N)c1-c1ccc(Cl)cc1 | > 13300 nM (inactive)
O=C(COc1ccc([N+](=O)[O-])cc1)Nc1ccc(C(=O)NCc2cccnc2)cc1 | > 13300 nM (inactive)
O=C(N/N=C/c1ccccc1Cl)c1[nH]c2ccc(Br)cc2c1-c1ccccc1 | 149 nM
O=C1SC(Cc2ccccc2)C(=O)N1c1ccccc1 (centres undefined) | 2350 nM
COc1cc(OC)cc(C(=O)N[C@H](C(=O)Nc2nc3ccccc3[nH]2)C(C)C)c1 | 324 nM
COc1cc2c(c(OC)c1OC)-c1ccc(O)c(=O)cc1C(NC(C)=O)CC2 (centres undefined) | < 104 nM
COc1ccccc1C(=O)Nc1nc2ccccc2[nH]1 | > 13300 nM (inactive)
CC[C@@]1(O)C(=O)OCc2c1cc1n(c2=O)Cc2cc3ccccc3nc2-1 | < 30.4 nM
O=C(NCc1cccnc1)c1ccc(NC(=O)c2ccc([N+](=O)[O-])cc2)cc1 | 1420 nM
C/C(=N\Nc1ncc(Cl)cc1Cl)c1ccccn1 | < 22.2 nM
O=Cc1cc2ccccc2nc1SCc1ccc(Cl)cc1 | < 104 nM
Cc1cccc2cc(C#N)c(SCC(=O)N3CC(=O)Nc4ccccc43)nc12 | < 104 nM
COc1ccc(N(C(=O)CCl)C(C(=O)NCCc2ccccc2)c2cccs2)cc1Cl (centres undefined) | < 50.2 nM
O=C(CCl)Nc1cc(SCC(O)CO)cc([N+](=O)[O-])c1 (centres undefined) | 997 nM
CCCc1sc(N/N=C/c2ccccn2)nc1-c1ccc(F)cc1 | 1360 nM
CC(C)(C)c1ccc(-n2nc(C#N)c(Cl)cc2=O)cc1 | 963 nM
CCCCCCCN(C(=O)CCl)c1cccc(C)c1 | 429 nM
O=S(=O)(c1ccc(Cl)cc1)c1snnc1-c1ccccc1 | 594 nM
Cc1cccnc1Nc1nc(-c2ccccn2)cs1 | < 142 nM
COc1ccc(/C=C/c2cc(-c3ccc(C)cc3)o[n+]2C)cc1 | 654 nM
O=S(=O)(c1ccc(NC(=S)NCc2cccnc2)cc1)N1CCCCC1 | < 133 nM
Cc1nc2ccc(CN(C)c3ccc(C(=O)N[C@@H](CCC(=O)O)C(=O)O)s3)cc2c(=O)[nH]1 | > 13300 nM (inactive)

SMILES | EC50
Cn1cnc([N+](=O)[O-])c1Sc1ncnc2nc[nH]c12 | > 13300 nM (inactive)
COc1ccc(N/N=C(/N=Nc2nc(C)cc(=O)[nH]2)c2ccccc2)cc1 | 446 nM
CCOc1cc(/C=C2\COc3ccccc3C2=O)cc(Br)c1OCC(=O)N(C)C | 3080 nM
FC(F)(F)c1nnc2c(Sc3ccccc3)nc3ccc(Cl)cc3n12 | 577 nM
C[C@@H]1C=CC(=O)O[C@@H]1c1ccc(C(F)(F)F)cc1 | 1970 nM
O=[N+]([O-])c1c(Nc2ccccn2)cc(Cl)c2nonc12 | 2110 nM
COC(=O)C1CN(C#N)N(c2ccc(Cl)cc2)C12c1ccccc1-c1ccccc12 (centres undefined) | 567 nM
O=C(N/N=C/c1ccc([N+](=O)[O-])o1)c1cc2ccccc2o1 | 7500 nM
Cc1ccc(C2=NN(C(=O)CCl)C(c3ccco3)C2)o1 (centres undefined) | 1600 nM
Nc1nc(CCl)nc(N(c2ccccc2)c2ccccc2)n1 | 121 nM
Cc1ccc(/C=N/NC(=O)c2n[nH]c3c2CCCC3)cc1 | < 104 nM
COc1ccc(C(=O)Nc2nc3ccccc3s2)c(OC)c1 | > 13300 nM (inactive)
CCC(C)C(=O)OCC1(c2ccc(C)cc2OC(=O)C(C)C)CO1 (centres undefined) | > 13300 nM (inactive)
Cc1sc2ncnc(N/N=C/c3ccccc3O)c2c1C | 3700 nM
O=[N+]([O-])c1cc(Br)c(Nc2ccccc2)c([N+](=O)[O-])c1 | 537 nM
O=C(N/N=C/c1cccs1)c1cc(-c2ccncc2)nc2ccccc12 | 113 nM
c1cnc2c(c1)ccc1cccnc12 | 5560 nM
COc1ccc(-c2cc3nc(C)cc(N)n3n2)cc1 | > 13300 nM (inactive)
Cc1cccc(Nc2nc(N)nc(CCl)n2)c1 | 2210 nM
C[C@@H]1C=CC(=O)O[C@@H]1c1ccc(Cl)cc1 | 4190 nM
Cc1ccc(-c2nnc(SCC(=O)Nc3ccccc3F)o2)cc1 | > 13300 nM (inactive)
CC(=O)c1ccc(Oc2cc(C)nc(-n3nc(C)cc3C)n2)cc1 | < 104 nM

SMILES | EC50
C[C@@H]1C[C@H]2OC(=O)C3(CO3)[C@H]2[C@H](O)[C@]2(C)C(=O)C3OC3[C@@H]12 (some centres undefined) | 2830 nM
O=c1c2ccccc2cnn1-c1nc2ccccc2[nH]1 | > 13300 nM (inactive)
Nc1nc(F)nc2c1ncn2[C@@H]1O[C@H](CO)[C@@H](O)[C@H]1O | 151 nM
Cn1cccc1/C=C1\SC(=Nc2ccc(O)cc2)NC1=O | < 104 nM
CCOCCOC(=O)c1[nH]c2c(c1C)C(=O)CC(c1ccccc1)C2 (centres undefined) | 262 nM
CCN(CC)C(=O)c1ccc(NC(=O)Nc2ccccc2F)cc1 | > 13300 nM (inactive)
CCc1ccc(/C=C2/SC(=S)N(CCC(=O)NCCCN3CCOCC3)C2=O)cc1 | 2420 nM
COc1ccccc1-n1cnc2cc(NCc3cccs3)ccc21 | < 104 nM
COc1ccc(C(C(=O)NC2CCCCC2)N(C(=O)CCl)c2cccc(Cl)c2)cc1 (centres undefined) | < 73.2 nM
COc1cccc(N(C(=O)CCl)C(C(=O)NCCc2ccccc2)c2cccs2)c1 (centres undefined) | 212 nM
O=C(c1cc([N+](=O)[O-])ccc1N1CCOCC1)N1CCN(c2ccccc2)CC1 | < 104 nM
CCOc1ccc(CC(=O)Nc2ccc(NC(=O)c3ccco3)cc2)cc1OCC | 2060 nM
COc1cccc(NC(=O)n2ncc3c(C)cccc32)c1 | > 13300 nM (inactive)
COc1cc(NC(=O)c2cccs2)c(OC)cc1NC(=O)CCC(=O)Nc1ccc2ncccc2c1 | > 13300 nM (inactive)
COc1ccccc1/C=C1\SC(=S)N(CCC(=O)NCCCn2ccnc2)C1=O | > 13300 nM (inactive)
CCN(CC)CCCNC(=O)c1cc(-c2ccccc2)c(N2CCCCC2)s1 | > 13300 nM (inactive)
O=C(c1ccc2c3n(nc2c1)-c1ccccc1CO3)N1CCCCC1 | > 13300 nM (inactive)
O=C(CCl)N(CCCNC(=O)C(F)(F)F)c1ccc([N+](=O)[O-])cc1 | 424 nM
CC(C)c1onc(C(=O)N2CCN(C(c3ccccc3)c3ccccc3)CC2)c1[N+](=O)[O-] | 522 nM
COC(=O)C[C@](O)(CCCC(C)(C)O)C(=O)O[C@@H]1C(OC)=C[C@]23CCCN2CCc2cc4c(cc2[C@H]13)OCO4 | < 34.7 nM
CCOc1ccccc1C(=O)N1CCN(c2cccc(Cl)c2)CC1 | < 104 nM
